Holding throughout (format): cell-based
For assay [1], the system named is N2a695 cells. Briefly: Aβ38, Aβ40, Aβ42 in conditioned media of N2a695 cells, MSD ELISA. Conditions: N2a695 cell supernatant, 5 h, single experiment. In general terms: In an ELISA, binding on a coated surface is turned into a signal by an enzyme label.
Assay [2] deals with N2a695 cells. Described as above. The following applies: N2a695 cell supernatant, 5 h, single experiment. On the procedure:
(§1) N2a695 were cultured in 1:1 OptiMem Reduced Serum Media (Life Technologies): Dulbecco’s Modified Eagle Medium ([+] 4.5 g/L D-glucose [+] L-Glutamine; [−] Sodium pyruvate (Life Technologies) supplemented with 5% fetal bovine serum, 0.4% Penstrep and 0.4% Geneticin and incubated at 37°C in 5% CO2. Antibodies were obtained from The Laboratory of Molecular and Cellular Neuroscience at The Rockefeller University. Human Aβ40 and Aβ42 ELISA plates (Life Technologies) and Plus MSD (Mesoscale Discovery) plates for Aβ Peptide (Aβ38, Aβ40 and Aβ42) Panel 1 (6E10) Kit (Catalog number K15200G) were obtained from Thermo Fisher, Life Technologies and Meso Scale Discovery.
(§2) N2a695 cells were used to screen all new compounds and in the follow-up studies with compounds found active in the preliminary screen. In a typical experiment, 6-well tissue culture plates (Corning) were seeded at 4.0 × 10^5–4.5 × 10^5 N2a695 cells/mL, 2 mL/well for overnight incubation. When cells were >95% confluent, media were exchanged with fresh media containing 10 µM solutions of compounds or DMSO carrier alone and cells were incubated at 37°C in 5% CO2 for 5 h. Culture media were collected and soluble Aβ concentrations in the media were determined by ELISA or MSD plates for human Aβ peptides as per manufacturer instructions. Signals for Aβ were measured using Perkin Elmer Envision and SQ120 MSD ELISA reader. Follow-up studies with N2a695 cells were performed similarly.
Similarly, we evaluated all IMTi-1 and IMTi-2 analogs, including the Boc-protected compounds, using N2a695 cells. […] To further examine the activities of the active analogs and whether IMTi’s has any bias on amyloidogenic vs. nonamyloidogenic cleavage of APP, we retested dozens of IMTi-1 and 2 analogs, including several found active in the screening assay and some tested for the first time using N2a695 cells as above, and performed MSD ELISA of the conditioned media to measure Aβ40, Aβ38, and Aβ42 peptides simultaneously.
This is another data set of the same source.

The subject of assay [3] is N2a695 cells. Briefly: Screening of Aβ production in N2a695 cells (Aβ ELISA of cell supernatants). The following applies: N2a695 cells. On the procedure:
as §1, §2
Specifically, we exposed N2a695 cells to increasing concentrations of each compound and measured the production of Aβ38, 40, and 42. […] Remarkably, this occurs for all Aβ peptides tested shorter than 40 amino acids (Figure 2C). Moreover, for some compounds that modulate γ-secretase activity most conspicuously at 5 μM, this effect vanishes at 10 μM, relative to controls (Figure 2B, C). […]

Assay [4] has as its system β- and γ-cleavages of APP. The assay can be described thus: Aβ in N2a cells transiently transfected with APP-FL or APP99 (APP-βCTF): BACE vs γ-secretase cleavage. The following applies: N2a cells transiently transfected with APP695 (APP-FL) or APP C99, 5 h. On the procedure: To determine effects of compounds on BACE1 vs. GS inhibition, we used N2a cells transiently transfected with full length APP (APP-FL) or with APP99 (APP-βCTF) as described previously ([Netzer et al., 2017]; [Sun et al., 2019]). After 48 h, media were removed and fresh media containing compound 1a and analogs were added. Following 5 h of incubation, cell supernatants were collected, and analyzed using MSD-ELISA for Aβ and sAPPα and western blot for sAPPβ.
We focused on IMTi-1 and its analogs 1d, 1f and 1p. […] To test whether these compounds lower Aβ levels by affecting the BACE and/or γ-secretase cleavages, we transfected wild-type (wt) cells with APP-FL and APP βCTF (C99), respectively, and incubated the cells with IMTi-1 (isomer) and analogs 1d, 1f and 1p. We used BACE inhibitor, MK8931, and γ-secretase inhibitor, DAPT, as controls and performed the experiments and processed the results as described previously ([Sun et al., 2019]).

Read-outs that look alike come from different tables or passages of the source.

With `Cc1ccccc1Nc1nccc(-c2cccc(NC(=O)c3ccc(CNCC(C)(C)C)cc3)c2)n1` [Compound 1i], the activity at 5 µM in assay [1] (read-out: % Aβ38 of DMSO ctrl) worked out at 106%; in assay [1] (read-out: % Aβ40 of DMSO ctrl), 56%; in assay [1] (read-out: % Aβ42 of DMSO ctrl) it was 58%. Also, the activity at 10 µM came out at 85% in assay [2] (read-out: % Aβ38 of DMSO ctrl), 41% in assay [2] (read-out: % Aβ40 of DMSO ctrl) and 46% in assay [2] (read-out: % Aβ42 of DMSO ctrl).

As to `Cc1ccccc1Nc1nccc(-c2cncc(NC(=O)c3ccc(CNC4CCCCC4)cc3)c2)n1` [Compound 1j], the results for the activity at 5 µM in assay [1] (read-out: % Aβ38 of DMSO ctrl), in assay [1] (read-out: % Aβ40 of DMSO ctrl) and in assay [1] (read-out: % Aβ42 of DMSO ctrl) were 112%, 83% and 75%, respectively. For the same molecule, the values for the activity at 10 µM in assay [2] (read-out: % Aβ38 of DMSO ctrl), in assay [2] (read-out: % Aβ40 of DMSO ctrl) and in assay [2] (read-out: % Aβ42 of DMSO ctrl) were 123%, 73% and 65%, respectively.

As to `Cc1ccccc1Nc1nccc(-c2cccc(NC(=O)c3ccc(CN(C(=O)OC(C)(C)C)C4CCCCC4)cc3)c2)n1` [Compound 1k-Boc], in assay [3] (10 µM), the “Aβ production in the screen (Fig. S1)” value is listed as “increase in Aβ production”.

As to `Cc1ccccc1Nc1nccc(-c2cccc(NC(=O)c3ccc(CNC4CCCCC4)cc3)c2)n1` [Compound 1k], the values for the activity at 5 µM in assay [1] (read-out: % Aβ38 of DMSO ctrl), in assay [1] (read-out: % Aβ40 of DMSO ctrl) and in assay [1] (read-out: % Aβ42 of DMSO ctrl) were 120%, 60% and 56%, respectively. The activity at 10 µM was 92% in assay [2] (read-out: % Aβ38 of DMSO ctrl), 38% in assay [2] (read-out: % Aβ40 of DMSO ctrl) and 38% in assay [2] (read-out: % Aβ42 of DMSO ctrl).

Regarding `Cc1ccccc1Nc1nccc(-c2cncc(NC(=O)c3ccc(C4CCCN(C)C4)cc3)c2)n1` (stereo not drawn) [Compound 1n], the activity at 5 µM in assay [1] (read-out: % Aβ38 of DMSO ctrl) was 112%; in assay [1] (read-out: % Aβ40 of DMSO ctrl), 63%; in assay [1] (read-out: % Aβ42 of DMSO ctrl), 56%. The activity at 10 µM was determined as 95% in assay [2] (read-out: % Aβ38 of DMSO ctrl), 42% in assay [2] (read-out: % Aβ40 of DMSO ctrl) and 38% in assay [2] (read-out: % Aβ42 of DMSO ctrl).

Regarding `CN(C)CCc1ccc(C(=O)Nc2cccc(-c3ccnc(Nc4cccnc4)n3)c2)cc1` [Compound 1p], the activity at 5 µM was determined as 58% in assay [1] (read-out: % Aβ38 of DMSO ctrl), 41% in assay [1] (read-out: % Aβ40 of DMSO ctrl) and 38% in assay [1] (read-out: % Aβ42 of DMSO ctrl). In addition, the “BACE and γ-secretase cleavage of APP, Aβ levels” value in assay [4] was “lower BACE and γ-secretase cleavage of APP”. Further, the results for the activity at 10 µM in assay [2] (read-out: % Aβ38 of DMSO ctrl), in assay [2] (read-out: % Aβ40 of DMSO ctrl) and in assay [2] (read-out: % Aβ42 of DMSO ctrl) were 24%, 18% and 15%, respectively.

`Cc1ccc(Nc2nccc(-c3ccc(CNC4CCCCC4)cc3)n2)cc1NC(=O)c1cccnc1` [Compound 2b]: the activity at 5 µM in assay [1] (read-out: % Aβ38 of DMSO ctrl) was found to be 93%; in assay [1] (read-out: % Aβ40 of DMSO ctrl) it was 90%; in assay [1] (read-out: % Aβ42 of DMSO ctrl), 88%. The activity at 10 µM stood at 74% in assay [2] (read-out: % Aβ38 of DMSO ctrl), 71% in assay [2] (read-out: % Aβ40 of DMSO ctrl) and 74% in assay [2] (read-out: % Aβ42 of DMSO ctrl).

`Cc1ccc(Nc2nccc(-c3ccc(CN4CCN(C)CC4)cc3)n2)cc1NC(=O)c1cccnc1` [IMTi-2] registered an Aβ40 levels in assay [3] (10 µM) of 68%. The “Activity in Aβ production assays” value in assay [3] is recorded as “active”.

Consider `Cc1ccc(CN2CCN(Cc3ccc(C(=O)Nc4cccnc4)cc3)CC2)cc1Nc1ncccn1` [IMTi-3], for which the Aβ40 levels in assay [3] (10 µM) is 93%. The “Activity in Aβ production assays” value in assay [3] was “inactive”.

The values above are taken from article PMC11493595, “Stretching the structural envelope of imatinib to reduce β-amyloid production by modulating both β- and γ-secretase cleavages of APP” (Frontiers in Chemistry, 2024).
